Laboratory results reported in patent US5202315A, “Cephalosporin compounds” (Lucky, Ltd., priority 1989, dated 1993).
≈ marks a conversion by molar mass, not a printed value. Where two headings read alike, the source gives them in different places.

How the values were obtained:
[1] = test system: Acinetobacter calcoaceticus ATCC 15473; assay: Antibacterial activity, MIC; type: cell-based; conditions: ATCC15473, ATCC 15473, agar two-fold dilution, 37° C., 20 hours, read-out: MIC
How it was run: (§1)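 Agar two-fold dilution method: compound serially diluted two-fold in Mueller-Hinton agar, spotted with 2 μl of a 10^7 CFU/ml inoculum of each standard strain, then incubated at 37 °C for 20 h.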

[2] = test system: Bacillus cereus ATCC 11778; assay: Antibacterial activity, MIC; type: cell-based; conditions: ATCC11778, ATCC 11778, agar two-fold dilution, 37° C., 20 hours, read-out: MIC
How it was run: as §1

[3] = test system: Bacillus megaterium ATCC 9885; assay: Antibacterial activity, MIC; type: cell-based; conditions: Priestia megaterium, ATCC9885; ATCC 9885; agar two-fold dilution, 37° C., 20 hours; read-out: MIC
How it was run: as §1

[4] = test system: Citrobacter freundii ATCC 8090; assay: Antibacterial activity, MIC; type: cell-based; conditions: ATCC8090, ATCC 8090, agar two-fold dilution, 37° C., 20 hours, read-out: MIC
How it was run: as §1

[5] = test system: Enterobacter aerogenes ATCC 29751; assay: Antibacterial activity, MIC; type: cell-based; conditions: Klebsiella aerogenes, ATCC29751; ATCC 29751; agar two-fold dilution, 37° C., 20 hours; read-out: MIC
How it was run: as §1

[6] = test system: Enterobacter cloacae ATCC 27508; assay: Antibacterial activity, MIC; type: cell-based; conditions: ATCC27508, ATCC 27508, agar two-fold dilution, 37° C., 20 hours, read-out: MIC
How it was run: as §1

[7] = test system: Escherichia coli ATCC 10536; assay: Antibacterial activity, MIC; type: cell-based; conditions: ATCC10536, agar two-fold dilution, 37° C., 20 hours
How it was run: as §1

[8] = test system: Escherichia coli ATCC 25922; assay: Antibacterial activity, MIC; type: cell-based; conditions: ATCC25922, agar two-fold dilution, 37° C., 20 hours
How it was run: as §1

[9] = test system: Klebsiella pneumoniae ATCC 10031; assay: Antibacterial activity, MIC; type: cell-based; conditions: ATCC10031, ATCC 10031, agar two-fold dilution, 37° C., 20 hours, read-out: MIC
How it was run: as §1

[10] = test system: Micrococcus luteus ATCC 9341; assay: Antibacterial activity, MIC; type: cell-based; conditions: ATCC9341, ATCC 9341, agar two-fold dilution, 37° C., 20 hours, read-out: MIC
How it was run: as §1

[11] = test system: Morganella morganii ATCC 8076h; assay: Antibacterial activity, MIC; type: cell-based; conditions: ATCC8076H, agar two-fold dilution, 37° C., 20 hours
How it was run: as §1

[12] = test system: Proteus mirabilis ATCC 25933; assay: Antibacterial activity, MIC; type: cell-based; conditions: ATCC25933, ATCC 25933, agar two-fold dilution, 37° C., 20 hours, read-out: MIC
How it was run: as §1

[13] = test system: Proteus vulgaris ATCC 6059; assay: Antibacterial activity, MIC; type: cell-based; conditions: ATCC6059, ATCC 6059, agar two-fold dilution, 37° C., 20 hours, read-out: MIC
How it was run: as §1

[14] = test system: Providencia rettgeri ATCC 9250; assay: Antibacterial activity, MIC; type: cell-based; conditions: ATCC9250, agar two-fold dilution, 37° C., 20 hours
How it was run: as §1

[15] = test system: Pseudomonas aeruginosa ATCC 10145; assay: Antibacterial activity, MIC; type: cell-based; conditions: ATCC10145, ATCC 10145, agar two-fold dilution, 37° C., 20 hours, read-out: MIC
How it was run: as §1

[16] = test system: Pseudomonas aeruginosa ATCC 25619; assay: Antibacterial activity, MIC; type: cell-based; conditions: ATCC25619, ATCC 25619, agar two-fold dilution, 37° C., 20 hours, read-out: MIC
How it was run: as §1

[17] = test system: Pseudomonas aeruginosa ATCC 27853; assay: Antibacterial activity, MIC; type: cell-based; conditions: ATCC27853, ATCC 27853, agar two-fold dilution, 37° C., 20 hours, read-out: MIC
How it was run: as §1

[18] = test system: Salmonella typhimurium ATCC 14028; assay: Antibacterial activity, MIC; type: cell-based; conditions: Salmonella enterica; ATCC 14028; agar two-fold dilution, 37° C., 20 hours; read-out: MIC
How it was run: as §1

[19] = test system: Serratia marcescens ATCC 27117; assay: Antibacterial activity, MIC; type: cell-based; conditions: ATCC27117, ATCC 27117, agar two-fold dilution, 37° C., 20 hours, read-out: MIC
How it was run: as §1

[20] = test system: Shigella flexneri ATCC 11836; assay: Antibacterial activity, MIC; type: cell-based; conditions: ATCC11836, agar two-fold dilution, 37° C., 20 hours
How it was run: as §1

[21] = test system: Shigella sonnei ATCC 11060; assay: Antibacterial activity, MIC; type: cell-based; conditions: ATCC11060, ATCC 11060, agar two-fold dilution, 37° C., 20 hours, read-out: MIC
How it was run: as §1

[22] = test system: Staphylococcus aureus ATCC 10537; assay: Antibacterial activity, MIC; type: cell-based; conditions: ATCC10537, ATCC 10537, agar two-fold dilution, 37° C., 20 hours, read-out: MIC
How it was run: as §1

[23] = test system: Staphylococcus aureus ATCC 6538p; assay: Antibacterial activity, MIC; type: cell-based; conditions: ATCC6538P, ATCC 6538p, agar two-fold dilution, 37° C., 20 hours, read-out: MIC
How it was run: as §1

[24] = test system: Staphylococcus epidermidis ATCC 12228; assay: Antibacterial activity, MIC; type: cell-based; conditions: ATCC12228, ATCC 12228, agar two-fold dilution, 37° C., 20 hours, read-out: MIC
How it was run: as §1

Escherichia coli = assay: Antibacterial activity against clinically isolated strains, MIC; type: cell-based; conditions: 38 clinical isolates, broth microdilution test
[25] = test system: Staphylococcus aureus methicillin resistant; assay: as above; type: cell-based; conditions: methicillin resistant, 7 clinical isolates, broth microdilution test; for MIC90: read-out: MIC 90%
[26] = In-vivo absorbency (plasma concentrations & pharmacokinetic parameters); design: species or system SD rat (male); conditions: plasma, SD male rat, iv 20 mg/kg; for concentration at 1 h: 60 min; for concentration at 1 h / concentration at 2 h: read-out: Plasma Conc.; for concentration at 2 h: 120 min; for AUC / half-life: two compartment model; for half-life: rat, iv, 20 mg/kg
Excerpt: The blood samples from the femoral vein of the rats were taken every hour after administration, and analyzed by bio-assay(agar well method).
Tested animal: SD male Rat (220~340 g)

| Structure (SMILES) | MIC [1] | MIC [2] | MIC [3] | MIC [4] | MIC [5] | MIC [6] | MIC [7] | MIC [8] | MIC [9] | MIC [10] | MIC [11] | MIC [12] | MIC [13] | MIC [14] | MIC [15] | MIC [16] | MIC [17] | MIC [18] | MIC [19] | MIC [20] | also measured |
| --- | --- | --- | --- | --- | --- | --- | --- | --- | --- | --- | --- | --- | --- | --- | --- | --- | --- | --- | --- | --- | --- |
| C[n+]1c(N)cc(N)nc1SCC1=C(C(=O)[O-])N2C(=O)C(NC(=O)/C(=N\OCC(=O)O)c3csc(N)n3)C2SC1 (stereo not shown) [Compound I-7] | 4 µg/mL (≈ 6.72 µM) | 128 µg/mL (≈ 215 µM) | 0.5 µg/mL (≈ 0.839 µM) | 0.031 µg/mL (≈ 0.052 µM) | 0.5 µg/mL (≈ 0.839 µM) | ≤ 0.008 µg/mL | 0.016 µg/mL (≈ 0.0269 µM) | 0.016 µg/mL (≈ 0.0269 µM) | 0.016 µg/mL (≈ 0.0269 µM) | 0.5 µg/mL (≈ 0.839 µM) | ≤ 0.008 µg/mL | 0.016 µg/mL (≈ 0.0269 µM) | 0.016 µg/mL (≈ 0.0269 µM) | ≤ 0.008 µg/mL | 4 µg/mL (≈ 6.72 µM) | 2 µg/mL (≈ 3.36 µM) | 2 µg/mL (≈ 3.36 µM) | 0.063 µg/mL (≈ 0.106 µM) | 0.016 µg/mL (≈ 0.0269 µM) | ≤ 0.008 µg/mL | MIC [21]: 0.016 µg/mL (≈ 0.0269 µM); MIC [22]: 2 µg/mL (≈ 3.36 µM); MIC [23]: 2 µg/mL (≈ 3.36 µM); MIC [24]: 1 µg/mL (≈ 1.68 µM); MIC50 (Escherichia coli): 0.016 µg/mL (≈ 0.0269 µM); MIC90 (Escherichia coli): 0.063 µg/mL (≈ 0.106 µM); MIC [25]: > 32 µg/mL; MIC50 [25]: > 32 µg/mL; MIC90 [25]: > 32 µg/mL; concentration at 1 h [26]: 8100 ng/mL; concentration at 2 h [26]: 1900 ng/mL; AUC [26]: 35700 ng·h/mL; half-life ([26]; read-out: T1/2 (α)): 2 min; half-life ([26]; read-out: T1/2 (β)): 26 min |
| CC[n+]1c(N)cc(N)nc1SCC1=C(C(=O)[O-])N2C(=O)C(NC(=O)/C(=N\OC(C)(C)C(=O)O)c3csc(N)n3)C2SC1 (stereo not shown) [Compound I-2] | 4 µg/mL (≈ 6.27 µM) | 64 µg/mL (≈ 100 µM) | 0.5 µg/mL (≈ 0.784 µM) | 0.13 µg/mL (≈ 0.204 µM) | 2 µg/mL (≈ 3.14 µM) | 0.031 µg/mL (≈ 0.0486 µM) | 0.063 µg/mL (≈ 0.0988 µM) | 0.063 µg/mL (≈ 0.0988 µM) | 0.063 µg/mL (≈ 0.0988 µM) | 0.25 µg/mL (≈ 0.392 µM) | ≤ 0.008 µg/mL | 0.031 µg/mL (≈ 0.0486 µM) | 0.031 µg/mL (≈ 0.0486 µM) | ≤ 0.008 µg/mL | 2 µg/mL (≈ 3.14 µM) | 1 µg/mL (≈ 1.57 µM) | 1 µg/mL (≈ 1.57 µM) | 0.25 µg/mL (≈ 0.392 µM) | 0.13 µg/mL (≈ 0.204 µM) | 0.031 µg/mL (≈ 0.0486 µM) | MIC [21]: 0.063 µg/mL (≈ 0.0988 µM); MIC [22]: 2 µg/mL (≈ 3.14 µM); MIC [23]: 2 µg/mL (≈ 3.14 µM); MIC [24]: 1 µg/mL (≈ 1.57 µM); MIC50 (Escherichia coli): 0.063 µg/mL (≈ 0.0988 µM); MIC90 (Escherichia coli): 0.13 µg/mL (≈ 0.204 µM); MIC50 [25]: > 128 µg/mL; MIC90 [25]: > 128 µg/mL; concentration at 1 h [26]: 2600 ng/mL; concentration at 2 h [26]: 400 ng/mL; AUC [26]: 11400 ng·h/mL; half-life ([26]; read-out: T1/2 (α)): 2 min; half-life ([26]; read-out: T1/2 (β)): 23 min |
